The subject of one assay is COX-2. Nature of the assay: PGE2 production in cell media as measure of COX-2 activity (GC/MS), A549 cells. It is filed as cell-based, human. The procedure:
(§1) To stimulate COX-2 expression, A549 or RAW264.7 cells were treated overnight with 5 ng/mL IL-1β (A549) or 10 μg/mL LPS and 10 U/mL IFNγ (RAW264.7) in serum-free medium. When indicated, cells were pretreated with indomethacin, aldehyde scavengers (glucosamine, 3-MoSA, PPM or EtSA), or vehicle (ethanol for indomethacin, H2O for scavengers) for 45 min, and then given 20 μM arachidonic acid (AA) or DMSO vehicle for 1 h before lysing.
A sample of cellular media was taken just prior to lysis and centrifuged to remove any cellular debris. For PGE2 analysis, samples were spiked with 2 ng of [^2H7] PGE2 as an internal standard. Prostaglandins were isolated and derivatized for analysis by GC/MS, operating in negative ion chemical ionization (NICI) mode and monitoring selected ions as previously described. For the […] internal standard, m/z=528. To account for the deuterium-protium exchange at the position C12 of [^2H7] PGE2, the summation of the signals obtained at m/z=530, m/z=531 and m/z=532 was performed.

The subject of a further assay is RAW264.7 cells. The assay can be described thus: LG-lysyl adduct formation on histones in COX-2-stimulated, AA-treated RAW264.7 cells (LC/ESI/MS/MS). As to conditions: for LG adduct formation on histones (LG-lysyl lactam adduct): 500 μM scavenger pretreated 45 min, 20 μM AA 1 h, n=2. It is filed as cell-based, mouse. On the procedure:
as §1
Cultured cells were lysed in hypotonic buffer (10 mM Tris/10 mM NaCl/3 mM MgCl2) containing 1 mM pyridoxamine and 100 μM indomethacin to prevent the artifactual formation of LGE2 during the lytic process. After letting cells swell on ice, membranes were disrupted by addition of Triton X-100 (0.5% final concentration) and vortexing. Nuclei were isolated by centrifugation for 10 min at 1000×g, and the resulting pellet washed with PBS. Histones were extracted in 0.4 N H2SO4, precipitated with trichloracetic acid, and washed with acetone. […] Histones were resolubilized in dilute NaOH, and pH neutralized with HCl. Protein concentration was determined using the method of Bradford. For tissue, a portion of frozen liver was homogenized in buffer containing 40 mM sodium citrate, and 1% Triton X-100 with 3 mM Trolox and 100 μM indomethacin. The supernatant was separated from settled debris, and nuclei were pelleted at 500×g and washed. Nuclear pellets were frequently transferred to fresh tubes to avoid contamination by floating lipid debris; any remaining was removed with a cotton swab. Histones were extracted as above. All centrifugation steps were carried out at 4° C.
Histone samples were prepared for mass spectrometry by addition of ammonium bicarbonate to 5 mM final concentration before digesting to single amino acids by protease step-digestion as previously described. In the case of immunoblots, proteins were digested directly off the nitrocellulose through incubation of the nitrocellulose strip in 30 μg/mL Pronase in ammonium bicarbonate buffer, and later addition of aminopeptidase. All samples were centrifuged at 2000×g for 10 min. after final digestion to remove precipitate, spiked with 0.2 ng ^13C-lysyl-lactam internal standard, and purified on prepared tC18 cartridges (Waters Corp., Milford, Mass.). Samples on tC18 cartridges were washed with water, then 30% methanol, before being eluted in 80% methanol and concentrated by evaporation. Samples were evaluated by electrospray ionization (ESI) LC/MS/MS on a ThermoFisher TSQ Quantum triple quadrapole mass spectrometer in positive ion mode and quantitated by isotopic dilution as previously described, with the exception of a reduced flow rate of 0.1 mL/min.

The next assay relates to histone H4. Nature of the assay: Salt extraction of A549 nuclei, histone H4 solubility (Western blot). Type of assay: cell-based, human. To be noted: A549 cells, 500 μM EtSA 45 min prior to 20 μM AA; 0.6-1.2 M NaCl. On the procedure: 60-80% confluent A549 cells were stimulated and treated with AA±500 μM EtSA before scraping cells in lysis media for nuclear isolation as above. After addition of Tritox X-100 and vortexing, 1.5 mL of each sample was aliquoted into an eppendorf and centrifuged to separate nuclei. Pellets were washed with PBS and all buffer removed. Nuclear pellets were resuspended in extraction buffer containing 0.6M, 0.9M, 1.2M or 1.5M NaCl (with 10 mM Tris, pH 7.5, 3 mM MgCl2, 0.5% NP-40, and protease inhibitor cocktail) and incubated 10 min on ice. Following this extraction period, the nuclei were centrifuged at 16,000×g to obtain the soluble fraction. This was sonicated, denatured at 95° C., and analyzed by SDS-PAGE and Western blotting, using Ponceau stain to visualize proteins and confirm equal loading, and anti-H4 antibody (Abcam, Cambridge, Mass.).
In general terms: Immunoblotting shows a protein as a band on a membrane.

The next assay relates to A549 cells. Nature of the assay: LG-lysyl adduct formation on histones in COX-2-stimulated, AA-treated A549 cells (LC/ESI/MS/MS). Type of assay: cell-based, human. On the procedure:
as §1
Cultured cells were lysed in hypotonic buffer (10 mM Tris/10 mM NaCl/3 mM MgCl2) containing 1 mM pyridoxamine and 100 μM indomethacin to prevent the artifactual formation of LGE2 during the lytic process. After letting cells swell on ice, membranes were disrupted by addition of Triton X-100 (0.5% final concentration) and vortexing. […] Protein concentration was determined using the method of Bradford. […]
Histone samples were prepared for mass spectrometry by addition of ammonium bicarbonate to 5 mM final concentration before digesting to single amino acids by protease step-digestion as previously described. […] Samples were evaluated by electrospray ionization (ESI) LC/MS/MS on a ThermoFisher TSQ Quantum triple quadrapole mass spectrometer in positive ion mode and quantitated by isotopic dilution as previously described, with the exception of a reduced flow rate of 0.1 mL/min.

Results on three compounds are retold here after patent publication US20150265584A1, “LEVUGLANDIN ADDUCTS HISTONE H4 IN A CYCLOOXYGENASE-2-DEPENDENT MANNER, ALTERING ITS INTERACTION WITH DNA” (VANDERBILT UNIVERSITY, priority 2014, published 2015).

Regarding `CCc1ccc(O)c(CN)c1` [EtSA, 5-ethylsalicylamine], the PGE2 production entry with COX-2 (highest concentration tested (1000 μM EtSA), 20 μM AA 1 h) is given as “without affecting PGE2 production”; with COX-2 (lower doses of EtSA (data not shown)), “no effect on PGE2 production”. In addition, the “LG adduct formation on histones (LG-lysyl lactam adduct)” value in the assay on RAW264.7 cells (RAW264.7 cells) is “most effectively blocked adduct formation”. For the same compound, the “protecting histones from modification by levuglandins, comparison with other scavengers” value in the assay with RAW264.7 cells (in comparison with salicylamine, pyridoxamine and their other analogues) was “most potent in protecting histones from modification by levuglandins”. The “histone H4 elution at lower salt concentrations (DNA-histone interaction)” value in the assay on histone H4 is “reversed”. In addition, the LG-histone adduct formation entry with A549 cells (stimulated A549 cells, 30, 300 or 1000 μM EtSA, 20 μM AA 1 h) is recorded as “inhibited LG-histone adduct formation”.
Take `COc1ccc2c(c1)c(CC(=O)O)c(C)n2C(=O)c1ccc(Cl)cc1` [indomethacin, reference compound]: the LG-histone adduct formation result in the assay with RAW264.7 cells (RAW264.7 cells, 50 μM indomethacin preincubated 45 min, 20 μM AA) is reported as “blocked”; with A549 cells (A549 cells, 50 μM indomethacin preincubated 45 min, 20 μM AA) it was “blocked”.
“pentylpyridoxamine [PPM, reference compound]”: the “LG adduct formation on histones (LG-lysyl lactam adduct)” value in the assay on RAW264.7 cells (RAW264.7 cells) was “partially inhibited histone adduct formation, but was much less potent than 5-ethylsalicylamine”.
